Results: ChEMBL document CHEMBL5052856, “Inhibitors of apol1 and methods of using same” (2021)

Legend:
[1] = tested on: Trypanosoma brucei brucei; assay: Antitrypanosomal activity against Trypanosoma brucei brucei assessed as trypanosome lysis using recombinant APOL1 protein G1 variant and measured by Alamar blue based fluoresence assay; format: functional, organism-based
[2] = molecular target: Apolipoprotein L1 (Homo sapiens, UniProt O14791); assay: Inhibition of APOL1 G1 variant in human HEK293-T-REx cells measured by Thallium assay; format: cell-based

Row | SMILES | IC50 [1] [µM] | IC50 [2] [µM]
1 | O=C([C@H]1C[C@H](c2c(-c3ccc(F)cc3)[nH]c3c(F)cc(F)cc32)C1)N(CCO)CCCO | 0.25 | > 1
2 | N#CC(CO)NC(=O)[C@H]1C[C@H](c2c(-c3ccc(F)cc3)[nH]c3c(F)cc(F)cc32)C1 (stereo partly drawn) | < 0.25 | < 0.25
3 | CS(=O)(=O)NC(=O)[C@H]1C[C@H](c2c(-c3ccc(F)cc3)[nH]c3c(F)cc(F)cc32)C1 | > 1 | > 1
4 | CC(N)(C(=O)NC(=O)[C@H]1C[C@H](c2c(-c3ccc(F)cc3)[nH]c3c(F)cc(F)cc32)C1)C(F)(F)F (stereo partly drawn) | 0.25 | > 1
5 | CC(=O)C1CCCCN1C(=O)[C@H]1C[C@H](c2c(-c3ccc(F)cc3)[nH]c3c(F)cc(F)cc32)C1 (stereo partly drawn) | 0.25 | > 1
6 | CC1CC(NC(=O)[C@H]2C[C@H](c3c(-c4ccc(F)cc4)[nH]c4c(F)cc(F)cc43)C2)C(=O)O1 (stereo partly drawn) | > 1 | > 1
7 | CC1(O)CC(C(=O)N2CCN(C(=O)[C@H]3C[C@H](c4c(-c5ccc(F)cc5)[nH]c5c(F)cc(F)cc54)C3)CC2(C)C)C1 (stereo partly drawn) | > 1 | > 1
8 | O=C([C@H]1C[C@H](c2c(-c3ccc(F)cc3)[nH]c3c(F)cc(F)cc32)C1)N1CCCC(CCO)C1 (stereo partly drawn) | > 1 | > 1
9 | CC(O)CNC(=O)[C@H]1C[C@H](c2c(-c3ccc(F)cc3)[nH]c3c(F)cc(F)cc32)C1 (stereo partly drawn) | 0.25 | 0.00025
10 | Cn1ccc(NC(=O)[C@H]2C[C@H](c3c(-c4ccc(F)cc4)[nH]c4c(F)cc(F)cc43)C2)n1 | 0.25 | > 1
11 | Cc1cc(NC(=O)[C@H]2C[C@H](c3c(-c4ccc(F)cc4)[nH]c4c(F)cc(F)cc43)C2)no1 | 0.25 | 0.00025
12 | O=C([C@H]1C[C@H](c2c(-c3ccc(F)cc3)[nH]c3c(F)cc(F)cc32)C1)N1CCCCC1CO (stereo partly drawn) | 0.25 | > 1
13 | NCCCNC(=O)[C@H]1C[C@H](c2c(-c3ccc(F)cc3)[nH]c3c(F)cc(F)cc32)C1 | < 0.25 | 0.00025
14 | CC1CC(NC(=O)[C@H]2C[C@H](c3c(-c4ccc(F)cc4)[nH]c4c(F)cc(F)cc43)C2)C(=O)N1 (stereo partly drawn) | 0.25 | > 1
15 | CC(C)C(CO)NC(=O)[C@H]1C[C@H](c2c(-c3ccc(F)cc3)[nH]c3c(F)cc(F)cc32)C1 (stereo partly drawn) | 0.25 | > 1
16 | O=C([C@H]1C[C@H](c2c(-c3ccc(F)cc3)[nH]c3c(F)cc(F)cc32)C1)N1C[C@@H](O)[C@H](O)C1 | 0.25 | > 1
17 | CC(CO)N1CCN(C(=O)[C@H]2C[C@H](c3c(-c4ccc(F)cc4)[nH]c4c(F)cc(F)cc43)C2)CC1 (stereo partly drawn) | > 1 | > 1
18 | O=C1CC[C@@H](NC(=O)[C@H]2C[C@H](c3c(-c4ccc(F)cc4)[nH]c4c(F)cc(F)cc43)C2)C1 | > 1 | > 1
19 | O=C(NCC1(O)COC1)[C@H]1C[C@H](c2c(-c3ccc(F)cc3)[nH]c3c(F)cc(F)cc32)C1 | 0.25 | 0.00025
20 | CN(C(=O)[C@H]1C[C@H](c2c(-c3ccc(F)cc3)[nH]c3c(F)cc(F)cc32)C1)C1(CO)CC1 | 0.25 | 0.00025
21 | Cc1ccn(CCNC(=O)[C@H]2C[C@H](c3c(-c4ccc(F)cc4)[nH]c4c(F)cc(F)cc43)C2)n1 | 0.25 | > 1
22 | O=C(NC[C@@H](O)C(F)(F)F)[C@H]1C[C@H](c2c(-c3ccc(F)cc3)[nH]c3c(F)cc(F)cc32)C1 | 0.25 | 0.00025
23 | CC(C)CC(NC(=O)[C@H]1C[C@H](c2c(-c3ccc(F)cc3)[nH]c3c(F)cc(F)cc32)C1)C(N)=O (stereo partly drawn) | > 1 | > 1
24 | O=C([C@H]1C[C@H](c2c(-c3ccc(F)cc3)[nH]c3c(F)cc(F)cc32)C1)N1CC[C@H](CO)C1 | > 1 | > 1
